Experiments:
[1] = system: G-401 (Other Solid Carcinomas); test: combination Emax (second highest fraction inhibited in the dose matrix, 72 h); higher = more inhibition; extreme values may be limits of the assay
In short: (§1)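 After 24 hours at 37°C and 5% CO2 in 1536-well plates, cells in DMEM/F12 or RPMI plus 10% FBS received two-drug dose matrices for 72 hours. Viability came from CellTiter-Glo 2.0 luminescence and was scaled as inhibition, anchored at 0 by vehicle wells and at 1 by blank wells. Combination Emax is taken as the second-highest inhibition in the matrix, and Bliss excess as the observed combination effect less EA + EB − EA·EB, with EA and EB the single-agent effects.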

[2] = system: OE33 (Esophageal Adenocarcinoma); test: as above
In short: as §1

[3] = system: NCI-H1355 (Lung Adenocarcinoma); test: as above
In short: as §1

[4] = system: EW-1 (Ewing's Sarcoma); test: as above
In short: as §1

[5] = system: HAL-01 (B-Lymphoblastic Leukemia); test: as above
In short: as §1

[6] = system: SW872 (Other Solid Carcinomas); test: as above
In short: as §1

[7] = system: NCI-H1092 (Small Cell Lung Carcinoma); test: as above
In short: as §1

[8] = system: KOPN-8 (B-Lymphoblastic Leukemia); test: as above
In short: as §1

[9] = system: NCI-H2122 (Lung Adenocarcinoma); test: as above
In short: as §1

[10] = system: OACM5-1 (Esophageal Adenocarcinoma); test: as above
In short: as §1

[11] = system: HCC1937 (Breast Carcinoma); test: as above
In short: as §1

[12] = system: MDA-MB-453 (Breast Carcinoma); test: as above
In short: as §1

[13] = system: HCC1500 (Breast Carcinoma); test: as above
In short: as §1

[14] = system: ALL-SIL (T-Lymphoblastic Leukemia); test: as above
In short: as §1

[15] = system: SNU-387 (Hepatocellular Carcinoma); test: as above
In short: as §1

[16] = system: Ca-Ski (Cervical Carcinoma); test: as above
In short: as §1

[17] = system: COLO-668 (Small Cell Lung Carcinoma); test: as above
In short: as §1

[18] = system: A4-Fuk (B-Lymphoblastic Leukemia); test: as above
In short: as §1

[19] = system: NCI-H650 (Lung Adenocarcinoma); test: Bliss excess, mean over the matrix (fraction); higher = more synergy
In short: as §1

[20] = system: SW872 (Other Solid Carcinomas); test: as above
In short: as §1
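Wherever Bliss excess, mean over the matrix is given: after 72 h of two-drug dosing.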

| Structure (SMILES) | combination Emax [1] | combination Emax [2] | combination Emax [3] | combination Emax [4] | combination Emax [5] | combination Emax [6] | combination Emax [7] | combination Emax [8] | combination Emax [9] | combination Emax [10] | combination Emax [11] | combination Emax [12] | combination Emax [13] | combination Emax [14] | combination Emax [15] | combination Emax [16] | combination Emax [17] | combination Emax [18] | Bliss excess [19] | Bliss excess [20] |
| --- | --- | --- | --- | --- | --- | --- | --- | --- | --- | --- | --- | --- | --- | --- | --- | --- | --- | --- | --- | --- |
| COc1nnc2ccc(N3CCC(c4ccc(OCCN5CCN(C)C(=O)[C@H]5C)cc4)CC3)nn12 [AZD5153] + CC1(C)CCC(CN2CCN(c3ccc(C(=O)NS(=O)(=O)c4ccc(NCC5CCOCC5)c([N+](=O)[O-])c4)c(Oc4cnc5[nH]ccc5c4)c3)CC2)=C(c2ccc(Cl)cc2)C1 [Venetoclax] (first compound max 1 µM, 7x7, partner max 1 µM) | 0.821 | 0.19 | 0.327 | 0.56 | 0.979 | 0.561 | 0.478 | 1 | 0.78 | 0.607 | 0.344 | 0.649 | 0.755 | 0.956 | 0.434 | 0.616 | 0.811 | 0.871 | -0.132 | -0.051 |
| COc1nnc2ccc(N3CCC(c4ccc(OCCN5CCN(C)C(=O)[C@H]5C)cc4)CC3)nn12 [AZD5153] + CCN(CCO)CCCOc1ccc2c(Nc3cc(CC(=O)Nc4cccc(F)c4)[nH]n3)ncnc2c1 [AZD2811] (first compound max 1 µM, 7x7, partner max 1 µM) | 0.806 | 0.301 | 0.509 | 0.64 | 0.752 | 0.578 | 0.374 | 0.996 | 0.853 | 0.734 | 0.383 | 0.677 | 0.41 | 1 | 0.487 | 0.591 | 0.264 | 0.893 | 0.0112 | -0.0335 |
| COc1nnc2ccc(N3CCC(c4ccc(OCCN5CCN(C)C(=O)[C@H]5C)cc4)CC3)nn12 [AZD5153] + C[C@@H]1COCCN1C2=NC(=NC(=C2)C3(CC3)[S@](=N)(=O)C)C4=C5C=CNC5=NC=C4 [AZD6738] (first compound max 1 µM, 7x7, partner max 10 µM) | 0.924 | 0.731 | 0.639 | 0.953 | 0.965 | 0.634 | 0.523 | 1 | 0.981 | 0.886 | 0.434 | 0.837 | 0.454 | 1 | 0.524 | 0.794 | 0.917 | 0.882 | 0.0125 | -0.0383 |
